Results taken from patent US20250101004A1, “NOVEL KALIRIN INHIBITORS FOR REGULATION OF SYNAPTIC PLASTICITY AND NEUROPATHIC PAIN TREATMENT” (Northwestern University, priority 2022, published 2025).
Where two headings read alike, the source gives them in different places.

Experiments:
HEK293T cells = conditions: 24 hours, Cell-titre Glo
Description: Cell viability was assessed by cell-titre glo assay. […] Indicated values indicate the required concentration to reduce viability by 50%.
Compound was incubated with heterologous cells (HEK293T) for 24 hours, and cell death was measured using the Cell-titre Glo assay.

kalirin GEF domain [1] = molecular target: T1, kalirin GEF domain (Homo sapiens, UniProt O60229); assay: Fluorescence thermal shift (FTS) binding to kalirin GEF domain
kalirin = molecular target: T2, kalirin (Homo sapiens, UniProt O60229); assay: Miniaturized high-throughput GEF assay with bodipy-GDP loaded RAC1; type: biochemical
T2 construct: intrinsic activity of RAC1 in the absence of kalirin's GEF domain (No GEF)
Description: FIG. 11 illustrates that reaction rates from FIG. 10 were assessed and plotted against concentration.
This was assessed using a miniaturized high-throughput GEF assay, utilizing fluorescently labelled GDP (bodipy-GDP) loaded RAC1.

[2] = system: primary cultured rat neurons; assay: Multi-electrode array (MEA) analysis of electrical activity of primary cultured neurons; type: cell-based
Description: FIG. 16A-16F show multi-electrode array analyses of the electrical activity of primary cultured neurons was assessed in the presence of compound B04, alongside the known RAC1 inhibitor NSC23776. […] Dose response analysis confirmed activity of B04 (123 μM, FIG. 16D and FIG. +16F). However, NSC23766 (FIG. 16C and FIG. 16E) had 10× efficacy (7.4 μM) compared to previous results.
Indicated PP01 analogues were incubated with rat primary cultured cortical neurons at 50 μM to assess the ability to recapitulate PP01s ability to inhibit neuronal activity.
48 well multi-electrode arrays (MEAs) were seeded with 50,000 primary cultured rat neurons and grown to 3WIV. Cells were incubated with NSC23766 or B04 at 50 and 100 μM for 4 hours alongside vehicle control (1% DMSO, FIG. 16A-16B). Neuronal activity was assessed in terms of weighted mean firing rate (number of events per second across active electrodes) and burst frequency (>5 events in 100 ms within a single electrode) and network burst frequency (FIG. 16A-16D).
DRC curve analyses of NS23766 (FIGS. 16C and 16E) and B04 (FIGS. 16D and 16F) was performed to assess compound efficacy. […] This is likely due to reported off-target inhibition of NMDAr (Hou et al 2014).
Plate was treated with vehicle control or B04 for 4 hours. The % change from baseline was recorded. […] Drug resistance from overexpression is a known phenomenon, supporting target engagement (Palmer et al, 2014).

kalirin GEF domain [3] = molecular target: T1, kalirin GEF domain; assay: Cellular GEF assay (RAC-Glisa) in cells transfected with kalirin-GEF domain; type: cell-based; set-up: Cells were transfected with the kalirin-GEF domain; expressed in transfected cells; host or cells: HEK293T (inferred from the same paragraph's toxicity test; the sentence on transfection says only 'Cells')
Text: Known compound, NSC23766 (FIGS. 14A and 14C), was run alongside B04 (FIGS. 14B and 14D) to confirm GEF inhibition (IC50 of NSC23766 matches published results).

SMILES	cellular toxicity / tolerability (HEK293T cells)	binding to kalirin by FTS (thermodynamic stability of kalirin GEF domain) (kalirin GEF domain [1])	inhibition of kalirin biochemical GEF activity (kalirin)	burst frequency ([2]; 4 hours, 50 and 100 μM)	firing rate (weighted mean firing rate) ([2]; 4 hours, 50 and 100 μM)	inhibitory efficacy in neurons compared to published reports and cellular activity ([2]; fold greater)	IC50 ([2]; primary cultured neurons, 4 hours treatment, FIG. 16C-16F, read-out: dose response activity on neuronal electrical activity)	inhibition of kalirin activity (RAC1 activation) (kalirin GEF domain [3])	IC50 ([2]; PP01 analogues, FIG. 31A-31C, read-out: IC50, inhibition of neuronal activity)	inhibition of neuronal activity ([2]; rat primary cultured cortical neurons, 50 μM, 4 and 24 hours)
Cc1cc2cc(Nc3ccnc(Nc4ccc5[nH]c(C)cc5c4)n3)ccc2[nH]1 [AZA1]	Only NSC23766 and B04 were well tolerated	not bind to kalirin	inhibited GEF activity							
O=C1C=CC(=O)N1c1cccc([N+](=O)[O-])c1 [NPPD]	Only NSC23766 and B04 were well tolerated	not bind to kalirin	inhibited GEF activity							
CCN(CC)CCCC(C)Nc1nc(C)cc(Nc2ccc3nc(C)cc(N)c3c2)n1 (stereo not shown) [NSC23766]	well tolerated	not bind to kalirin	inhibited GEF activity	reduced	reduced	10 ×	7.4 µM	inhibit kalirin activity		
CC(C)c1cn2c(NC(=O)Cc3c[nH]c4ccccc34)cccc2n1 [NW12, 2-(1H-indol-3-yl)-N-[2-(propan-2-yl)-1H-imidazo[1,2-a]pyridine-5-yl]acetamide]	suitable for in vitro cellular studies								< 5 µM	inhibited activity robustly
O=C1C=C2C(=CCOC2O)O1 (stereo not shown) [patulin]		bond to kalirin	inhibited GEF activity							
